{"source": "patent US20240342195A1", "about": "“AGENT FOR COMBINATION USE COMPRISING T CELL AND/OR B CELL ACTIVITY REGULATOR” (TOKAI UNIVERSITY EDUCATIONAL SYSTEM, priority 2021, published 2024)", "key": {"[1]": {"test_system": "Hu-PBMC-NOG (GVHD onset model)", "test": "GVHD onset model: human PBMCs transplanted to NOG mouse, P4 or COR administered subcutaneously", "type": "in vivo", "conditions": "4 weeks", "description": "In the analysis using the GVHD model, PBMCs prepared in the same manner as described above were washed with PBS, and 2.5×10^6 PBMCs were intravenously transplanted to each 8- to 9-week-old NOG mouse. […] At the same time as the administration, the weight was measured. After 4 weeks, the mouse was anesthetized to collect heart blood, and euthanized. From various lymphoid organs excised, human cells were prepared, hemolyzed, and then subjected to FCM. Besides, the lung and the liver were excised, and immunohistochemically stained as follows. A tissue of the mouse was immobilized with 20% formalin (Wako Pure Chemical Industries, Ltd.), and embedded in paraffin. The obtained paraffin block was sliced, and the resultant was subjected to deparaffinization, mounted on a slide glass, and stained with hematoxylin and eosin (HE). In immunohistochemical staining with an anti-human CD45 antibody, the slide was subjected to a heat treatment at 97° C. for 20 minutes, and subjected to an endogenous peroxidase treatment through a reaction with 0.3% H2O2/MetOH at room temperature for 10 minutes. Thereafter, the resultant was blocked with 1% goat serum, and anti-human CD45 (Dako) was added thereto, followed by a reaction overnight at 4° C. The resultant slide was washed 3 times with 0.01 M PBS for 5 minutes, and colored with a DAB solution. The resultant was washed with running water for 3 minutes, and stained with hematoxylin, followed by dehydration and penetration/encapsulation."}, "[2]": {"test_system": "Human peripheral blood mononuclear cells (PBMCs)", "test": "cytokine production in PBMCs activated in the presence of P4", "type": "cell-based", "conditions": "0 to 200 μM; PBMCs + TSST-1; 3 days", "description": "(§1) The PBMCs (final concentration: 1×10^6/mL) were cultured for 3 days at 37° C. in 5% CO2 in 10% FCS-containing RPMI 1640 to which P4 or COR was added in various concentrations with stimulation by 1 μg/mL of toxic shock syndrome toxin-1 (TSST-1). These cells were collected, washed with PBS, and dispensed into a Fisher tube in an amount of 1×10^6 cells/tube. For analysis of a human cell surface marker, a fluorescent-labeled anti-human monoclonal antibody (mAbs) was used. The cells were stained with the mAbs, a reaction was performed for 15 minutes at 4° C., and the resultant was washed with PBS containing 1% (w/v) BSA. Then, the resultant was analyzed by FACS Fortessa, or FACS Verse (BD Bioscience, Franklin Lakes, NJ). In the analysis, a leukocyte gated or lymphocyte gated cells were further gated by expression of human CD45, and then the analysis was performed. A culture supernatant was collected, and 25 μL thereof was dispensed to quantitatively determine cytokine with Legend Plex™ kit from BioLegend."}, "P3-X63-Ag8-U1 (P3X)": {"test_system": "P3-X63-Ag8-U1 (P3X)", "test": "proliferating ability of cell line cultured with P4 or COR", "type": "cell-based, mouse", "conditions": "cultured 3 days", "description": "(§2) Each of human choriocarcinoma cell line JEG-3, BeWo, and embryonic kidney cell line HEK293 was cultured for 10 days at 37° C. in 5% CO2 in a 10% Fetal Calf Serum (FCS)-containing DMEM (Gibuco) to which water-soluble progesterone (P4; water soluble) (Sigma) or cortisol (COR) (Sigma) was added in various concentrations. Each of mouse myeloma cell line P3-X63-Ag8-U1 (P3X) and mouse lymphoma cell line A20 was cultured for 3 days at 37° C. in 5% CO2 in 10% FCS-containing RPMI 1640 to which P4 or COR was added in various concentrations. Proliferation of the cells was evaluated by measuring the number of the cells."}, "A20": {"test_system": "A20", "test": "proliferating ability of cell line cultured with P4 or COR", "type": "cell-based, mouse", "conditions": "cultured 3 days", "description": "as §2"}, "B cell in PBMCs [3]": {"test_system": "B cell in PBMCs", "test": "FCM analysis of PD-1 on B cells of TSST-1-stimulated PBMCs", "type": "cell-based, human", "conditions": "TSST-1 and P4/COR stimulation; data not shown", "description": "as §1"}, "JEG-3": {"test_system": "JEG-3", "test": "proliferating ability of cell line cultured with P4 or COR", "type": "cell-based, human", "conditions": "200 μM, cultured 10 days", "description": "as §2"}, "HEK293": {"test_system": "HEK293", "test": "proliferating ability of cell line cultured with P4 or COR", "type": "cell-based, human", "conditions": "200 μM, cultured 10 days", "description": "as §2"}, "BeWo": {"test_system": "BeWo", "test": "proliferating ability of cell line cultured with P4 or COR", "type": "cell-based, human", "conditions": "200 μM, cultured 10 days", "description": "as §2"}, "[4]": {"test_system": "CD4 and CD8 T cells in PBMCs", "test": "restimulation experiment (transient vs continuous P4/COR), PD-1/PD-L1 on T cells", "type": "cell-based, human", "conditions": "CD4 and CD8 T cells, TSST-1 3 days", "description": "(§3) In a restimulation experiment, PBMCs were cultured for 6 hours at 37° C. in 5% CO2 in 10% FCS-containing RPMI 1640 to which 200 μM P4 or COR was added. These cells were washed, adjusted to a final concentration of 1×10^6/mL, and cultured again in the presence or absence of 200 μM P4 or COR with stimulation by 1 μM TSST-1. After 72 hours, the resultant cells were collected to be analyzed by FCM."}, "PBMC-NOG-hIL-4-Tg mouse": {"test_system": "PBMC-NOG-hIL-4-Tg mouse", "test": "transplantation of P4/COR-cultured PBMCs to NOG-hIL-4-Tg mouse immunized with CH401MAP", "type": "in vivo"}, "[5]": {"test_system": "T cell (CD3 gated) in human PBMCs", "test": "atezolizumab addition experiment, PD-L1/PD-1 expression on T cell by FCM", "type": "cell-based", "conditions": "0 to 200 μM; TSST-1; 3 days", "description": "(§4) As for an experiment of atezolizumab addition, 0 to 200 μM P4 or COR, 1 μM TSST-1, and 100 μg/mL atezolizumab were added to PBMCs, and the resultant was cultured for 72 hours at 37° C. in 5% CO2, followed by analysis by FCM."}, "[6]": {"test_system": "Human peripheral blood mononuclear cells (PBMCs)", "test": "number of cells of TSST-1-stimulated PBMCs cultured with P4 or COR", "type": "cell-based", "conditions": "PBMCs + TSST-1; 3 days; high concentration", "description": "as §1"}, "B cell in PBMCs [7]": {"test_system": "B cell in PBMCs", "test": "restimulation experiment (transient vs continuous P4/COR), PD-L1 on B cells", "type": "cell-based, human", "conditions": "TSST-1 3 days", "description": "as §3"}, "[8]": {"test_system": "B cell (CD19 gated) in human PBMCs", "test": "atezolizumab addition experiment, PD-L1/PD-1 expression on B cell by FCM", "type": "cell-based", "conditions": "TSST-1, 3 days", "description": "as §4"}, "[9]": {"test_system": "CD4 and CD8 T cells in PBMCs", "test": "FCM analysis of activation/exhaustion markers (CD25, PD-1) on T cells of TSST-1-stimulated PBMCs", "type": "cell-based, human", "conditions": "day 3", "description": "as §1"}, "[10]": {"conditions": "2 mg/head subcutaneously twice a week"}}, "note": "“Also recorded” adds a separate entry of the source.", "data": [{"smiles": "CC(=O)[C@H]1CC[C@H]2[C@@H]3CCC4=CC(=O)CC[C@]4(C)[C@H]3CC[C@]12C", "note": "[P4, progesterone]", "values": [{"measurement": "CD8 T cells", "setting": "[1]; [10]", "value": "tend to increase"}, {"measurement": "GVHD symptoms", "setting": "[1]; [10]", "value": "remarkably relieved"}, {"measurement": "number of spleen cells vs control", "setting": "[1]; [10]", "value": "rather increased"}, {"measurement": "weight loss by GVHD", "setting": "[1]; [10]", "value": "only slightly caused at an initial stage"}, {"measurement": "lymphocyte infiltration into a peripheral tissue such as the lung", "setting": "[1]; anti-human CD45 immunohistochemical staining, 2 mg/head subcutaneously twice a week", "value": "tended to be suppressed"}, {"measurement": "CD62L expression in vivo", "setting": "[1]; continuously administered to humanized NOG mouse of GVHD onset model", "value": "maintained CD62L expression in vivo for a long period of 4 weeks"}, {"measurement": "cytokine production in culture supernatant (10 cytokines of FIG. 4)", "setting": "[2]", "value": "suppression of cytokine production was observed depending on the P4 concentration"}, {"measurement": "proliferation", "setting": "P3-X63-Ag8-U1 (P3X); 20 μM or less", "value": "proliferation suppression was not observed"}, {"measurement": "proliferation", "setting": "P3-X63-Ag8-U1 (P3X); high concentration of 200 μm", "value": "proliferation suppression was observed"}, {"measurement": "proliferation", "setting": "A20; 20 μM or less", "value": "proliferation suppression was not observed"}, {"measurement": "proliferation", "setting": "A20; high concentration of 200 μm", "value": "proliferation suppression was observed"}, {"measurement": "PD-1 expression on B cell", "setting": "B cell in PBMCs [3]", "value": "not increased"}, {"measurement": "cell proliferating ability", "setting": "JEG-3", "value": "little proliferated"}, {"measurement": "cell proliferating ability", "setting": "HEK293", "value": "little proliferated"}, {"measurement": "cell proliferating ability", "setting": "BeWo", "value": "little proliferated"}, {"measurement": "ratio of later-phase activated (PD-1/PD-L1-positive) cells", "setting": "[4]; continuously added, 200 μM", "value": "remarkably reduced"}, {"measurement": "activation (PD-1/PD-L1-positive cells) vs control group", "setting": "[4]; transiently added (200 μM 6 hours, washed)", "value": "substantially equivalent to or greater than that of a control group"}, {"measurement": "engraftment ability of transplanted PBMCs", "setting": "PBMC-NOG-hIL-4-Tg mouse; PBMCs cultured with 200 μM for 6 hours before transplantation, analysis after 4 weeks", "value": "equivalent to that of a control group"}, {"measurement": "specific antibody production (CH401MAP)", "setting": "PBMC-NOG-hIL-4-Tg mouse; PBMCs cultured with 200 μM for 6 hours before transplantation, plasma after 4 weeks", "value": "maintained"}, {"measurement": "expression of CD62L in human cells engrafted into the spleen", "setting": "PBMC-NOG-hIL-4-Tg mouse; treated PBMCs transplanted to NOG-hIL-4-Tg, 4 weeks", "value": "increased as compared with that in a CTRL mouse"}, {"measurement": "PD-1 expression in a T cell", "setting": "[5]", "value": "reduction in PD-1 expression dependent on P4 concentration"}, {"measurement": "PD-L1 expression in a T cell", "setting": "[5]", "value": "reduced"}, {"measurement": "proliferation (number of cells)", "setting": "[6]", "value": "suppressed"}, {"measurement": "PD-L1 expression in B cell", "setting": "B cell in PBMCs [7]; continuous administration, 200 μM", "value": "suppressed PD-L1 expression"}, {"measurement": "PD-L1 expression in B cell", "setting": "B cell in PBMCs [7]; transient addition (200 μM 6 hours, washed)", "value": "tended to maintain the expression; also recorded: tended to rather increase PD-L1 expression"}, {"measurement": "PD-L1 expression in a B cell", "setting": "[8]; 0 to 200 μM", "value": "showed PD-L1 expression"}, {"measurement": "PD-L1 expression in a B cell", "setting": "[8]; 20 μM", "value": "high"}, {"measurement": "activation marker-negative (non-activated) T cells", "setting": "[9]; 20 to 200 μM", "value": "increased depending on the P4 concentration"}, {"measurement": "later-phase activated (CD25-positive PD-1-positive) T cells", "setting": "[9]; CD4 and CD8 T cells, 200 μM", "value": "minimally detected"}, {"measurement": "ratio of later-phase activated (CD25-positive PD-1-positive) T cells", "setting": "[9]; CD4 and CD8 T cells, 20 to 200 μM", "value": "reduced dependent on the P4 concentration"}]}]}
